Values quoted from earlier work, collected in patent US20060019313A1, “Method for detecting molecular surface interactions” (Biacore AB, priority 2004, published 2006).

Test system: Anti-myoglobin IgG
Details: stated as known; IgG used as reference

binding to IgG: not to IgG
Compound: CCC(Cc1c(I)cc(I)c(O)c1I)C(=O)O (stereo not drawn) [iophenoxic acid, α-ethyl-3-hydroxy-2,4,6-triiodohydro-cinnamic acid]
